Where two headings read alike, the source gives them in different places.
Target: T1, p53(Y220C) (Homo sapiens, UniProt P04637, Y220C)
T1 construct: His-p53 Y220C (94-294) protein
Test: In vitro DNA binding assay (HTRF), His-p53 Y220C (94-294) with biotinylated p53 consensus DNA
Format: biochemical
Procedure: After His-p53 Y220C (94-294) protein was placed with a compound in the present of MAb Anti His-Tb cryptate (Cisbio, Cat. NO. 61HI2TLA) in a 384 well microplate (Greiner) for 15 min at 25 °C, the assay plate was transferred into 27 °C incubator and incubated for 60 min. Biotinalyted p53 consensus DNA (ID: p53-SEQUENCE 2 —F: 5′(biotin)-[…] 3′ —R: 5′ […] 3′) was added into the assay plate in the present of Streptaidin-d2 (Cisbio, Cat. NO. 610SADLF) cryptate (Final concentration: 20 mM HEPES pH=7.4, 75 mM KCl, 1 mM MgCl2, 0.1% (w/v) BSA, 1 mM DTT, 2.5 nM His-P53 Y220C (94-294) protein, 0.33 nM MAb Anti His-Tb cryptate, 2.5 nM Streptaidin-d2 cryptate, 10 nM Biotinalyted DNA) and incubated for another 60 min. Wells containing 2 μM reference compound Ref-1a served as high control, and wells containing same percentage of DMSO served as low control. Homogeneous time-resolved fluorescence (HTRF) signals were read on Tecan Spark multimode microplate reader. HTRF ratios for each individual well were calculated by equation: HTRF ratio=(Signal F665/Signal F620)*1000. The percent of activation of compounds treated wells were normalized between high control and low control (% Activation=(HTRF ratiocompound treated−HTRF ratiolow control)/(HTRF ratiohigh control−HTRF ratiolow control)*100%). Then the data were analyzed either by fitting a 4-parameter logistic model or by Excel to calculate EC50 values. And the EC50 was the concentration at 50% Activation on the curve.

[1] = HTRF, 27 °C, His-p53 Y220C (94-294) 2.5 nM, biotinylated DNA 10 nM, normalized to 2 μM Ref-1a, EC50 = concentration at 50% Activation, read-out: p53(Y220C) EC50

## COc1cc(P(C)(C)=O)ccc1NCC#Cc1sc2c(NC3CCN(C)CC3)nccc2c1CC(F)(F)F [Example 4, (3-methoxy-4-((3-(7-((1-methylpiperidin-4-yl)amino)-3-(2,2,2-trifluoroethyl)thieno[2,3-c]pyridin-2-yl)prop-2-yn-1-yl)amino)phenyl)dimethylphosphine oxide]
[1]
  EC50: 353 nM

## COc1cc(N2CC(=O)NS2(=O)=O)ccc1NCC#Cc1sc2c(N[C@@H]3CCN(C)C[C@@H]3F)cccc2c1CC(F)(F)F [Example 5, 5-(4-((3-(7-(((3S,4R)-3-fluoro-1-methylpiperidin-4-yl)amino)-3-(2,2,2-trifluoroethyl)benzo[b]thiophen-2-yl)prop-2-yn-1-yl)amino)-3-methoxyphenyl)-1,2,5-thiadiazolidin-3-one-1,1-dioxide]
[1]
  EC50: 323 nM

## COc1cc(P(C)(C)=O)ccc1NCC#Cc1sc2c(NC3CCS(=N)(=O)CC3)cccc2c1CC(F)(F)F (centres unmarked) [Example 6, (4-((3-(7-((1-imino-1-oxidohexahydro-1l6-thiopyran-4-yl)amino)-3-(2,2,2-trifluoroethyl)benzo[b]thiophen-2-yl)prop-2-yn-1-yl)amino)-3-methoxyphenyl)dimethylphosphine oxide]
[1]
  EC50: 209 nM

## COc1cc(P(C)(C)=O)ccc1NCC#Cc1sc2c(NCC3(F)CCN(C)CC3)cccc2c1CC(F)(F)F [Example 16, (4-((3-(7-(((4-fluoro-1-methylpiperidin-4-yl)methyl)amino)-3-(2,2,2-trifluoroethyl)benzo[b]thiophen-2-yl)prop-2-yn-1-yl)amino)-3-methoxyphenyl)dimethylphosphine oxide]
[1]
  EC50: 250 nM

## COc1cc(P(C)(C)=O)ccc1NCC#Cc1sc2c(N[C@H]3CCN(C)C[C@H]3F)cccc2c1C(C)C(F)(F)F (stereo partly drawn) [Example 17, (4-((3-(7-(((3R,4S)-3-fluoro-1-methylpiperidin-4-yl)amino)-3-(1,1,1-trifluoropropan-2-yl)benzo[b]thiophen-2-yl)prop-2-yn-1-yl)amino)-3-methoxyphenyl)dimethylphosphine oxide]
[1]
  EC50: 251 nM

## COc1cc(P(C)(C)=O)ccc1NCC#Cc1sc2c(N[C@@H]3CCN(C)C[C@@H]3F)cccc2c1C(C)C(F)(F)F (stereo partly drawn) [Example 18, (4-((3-(7-(((3S,4R)-3-fluoro-1-methylpiperidin-4-yl)amino)-3-(1,1,1-trifluoropropan-2-yl)benzo[b]thiophen-2-yl)prop-2-yn-1-yl)amino)-3-methoxyphenyl)dimethylphosphine oxide]
[1]
  EC50: 574 nM

## CN1CC[C@@H](Nc2cccc3c(CC(F)(F)F)c(C#C[C@@H]4Cc5cc(P(C)(C)=O)ccc5N4)sc23)[C@@H](F)C1 [Example 21, ((S)-2-((7-(((3S,4R)-3-fluoro-1-methylpiperidin-4-yl)amino)-3-(2,2,2-trifluoroethyl)benzo[b]thiophen-2-yl)ethynyl)indolin-5-yl)dimethylphosphine oxide]
[1]
  EC50: 424 nM

## CN1CC[C@@H](Nc2cccc3c(CC(F)(F)F)c(C#C[C@H]4Cc5cc(P(C)(C)=O)ccc5N4)sc23)[C@@H](F)C1 [Example 22, ((R)-2-((7-(((3S,4R)-3-fluoro-1-methylpiperidin-4-yl)amino)-3-(2,2,2-trifluoroethyl)benzo[b]thiophen-2-yl)ethynyl)indolin-5-yl)dimethylphosphine oxide]
[1]
  EC50: 313 nM

## COc1cc([S@](=N)(=O)C2CCOCC2)ccc1NCC#Cc1sc2c(N[C@@H]3CCN(C)C[C@@H]3F)cccc2c1CC(F)(F)F [Example 25, (R)-(4-((3-(7-(((3S,4R)-3-fluoro-1-methylpiperidin-4-yl)amino)-3-(2,2,2-trifluoroethyl)benzo[b]thiophen-2-yl)prop-2-yn-1-yl)amino)-3-methoxyphenyl)(imino)(tetrahydro-2H-pyran-4-yl)-16-sulfanone]
[1]
  EC50: 62 nM

## COc1cc([S@@](=N)(=O)C(C)C)ccc1NCC#Cc1sc2c(N[C@@H]3CCN(C)C[C@@H]3F)cccc2c1CC(F)(F)F [Example 27, (S)-(4-((3-(7-(((3S,4R)-3-fluoro-1-methylpiperidin-4-yl)amino)-3-(2,2,2-trifluoroethyl)benzo[b]thiophen-2-yl)prop-2-yn-1-yl)amino)-3-methoxyphenyl)(imino)(isopropyl)-16-sulfanone]
[1]
  EC50: 74 nM

## COc1cc(P(C)(C)=O)ccc1NCC#Cc1sc2c(N[C@H]3CCCN(C)C3)cccc2c1CC(F)(F)F [Example 29, (S)-(3-methoxy-4-((3-(7-((1-methylpiperidin-3-yl)amino)-3-(2,2,2-trifluoroethyl)benzo[b]thiophen-2-yl)prop-2-yn-1-yl)amino)phenyl)dimethylphosphine oxide]
[1]
  EC50: 155 nM

## COc1cc(P(C)(C)=O)ccc1NCC#Cc1sc2c(N[C@H]3CCN(C)C[C@H]3F)cccc2c1[C@H](O)C(F)(F)F [Example 32, (4-((3-(7-(((3R,4S)-3-fluoro-1-methylpiperidin-4-yl)amino)-3-((S)-2,2,2-trifluoro-1-hydroxyethyl)benzo[b]thiophen-2-yl)prop-2-yn-1-yl)amino)-3-methoxyphenyl)dimethylphosphine oxide]
[1]
  EC50: 117 nM

## COc1cc(S(C)(=O)=O)ccc1NCC#Cc1sc2c(N[C@H]3CCN(C)C[C@H]3F)cccc2c1CC(F)(F)F [Example 35, (3R,4S)-3-fluoro-N-(2-(3-((2-methoxy-4-(methylsulfonyl)phenyl)amino)prop-1-yn-1-yl)-3-(2,2,2-trifluoroethyl)benzo[b]thiophen-7-yl)-1-methylpiperidin-4-amine]
[1]
  EC50: 192 nM

## COc1cc(P(C)(C)=O)ccc1NCC#Cc1sc2c(N[C@H]3CCN(C)C[C@@H]3F)cccc2c1CC(F)(F)F [Example 38, (4-((3-(7-(((3S,4S)-3-fluoro-1-methylpiperidin-4-yl)amino)-3-(2,2,2-trifluoroethyl)benzo[b]thiophen-2-yl)prop-2-yn-1-yl)amino)-3-methoxyphenyl)dimethylphosphine oxide]
[1]
  EC50: 373 nM

## CN1CC[C@@H](Nc2cccc3c(CC(F)(F)F)c(C#CCNc4ccc(P(C)(C)=O)cc4-c4nc(=O)o[nH]4)sc23)[C@@H](F)C1 [Example 39, 3-(5-(dimethylphosphoryl)-2-((3-(7-(((3S,4R)-3-fluoro-1-methylpiperidin-4-yl)amino)-3-(2,2,2-trifluoroethyl)benzo[b]thiophen-2-yl)prop-2-yn-1-yl)amino)phenyl)-1,2,4-oxadiazol-5(2H)-one]
[1]
  EC50: 292 nM

## COc1cc(-c2nc(=O)o[nH]2)ccc1NCC#Cc1sc2c(N[C@@H]3CCN(C)C[C@@H]3F)cccc2c1CC(F)(F)F [Example 40, 3-(4-((3-(7-(((3S,4R)-3-fluoro-1-methylpiperidin-4-yl)amino)-3-(2,2,2-trifluoroethyl)benzo[b]thiophen-2-yl)prop-2-yn-1-yl)amino)-3-methoxyphenyl)-1,2,4-oxadiazol-5(2H)-one]
[1]
  EC50: 473 nM

## COc1cc(P(C)(C)=O)ccc1NCC#Cc1sc2c(N[C@H]3CN4CCC3CC4)cccc2c1CC(F)(F)F [Example 46, (R)-(3-methoxy-4-((3-(7-(quinuclidin-3-ylamino)-3-(2,2,2-trifluoroethyl)benzo[b]thiophen-2-yl)prop-2-yn-1-yl)amino)phenyl)dimethylphosphine oxide]
  EC50: 124 nM

## [2H]C([2H])([2H])Oc1cc(P(C)(C)=S)ccc1NCC#Cc1sc2c(N[C@@H]3CCN(C)C[C@@H]3F)cccc2c1CC(F)(F)F [Example 47, (4-((3-(7-(((3S,4R)-3-fluoro-1-methylpiperidin-4-yl)amino)-3-(2,2,2-trifluoroethyl)benzo[b]thiophen-2-yl)prop-2-yn-1-yl)amino)-3-(methoxy-d3)phenyl)dimethylphosphine sulfide]
[1]
  EC50: 180 nM

## COc1cc([S@](=N)(=O)C(F)F)ccc1NCC#Cc1sc2c(N[C@@H]3CCN(C)C[C@@H]3F)cccc2c1CC(F)(F)F [Example 51, (S)-(difluoromethyl)(4-((3-(7-(((3S,4R)-3-fluoro-1-methylpiperidin-4-yl)amino)-3-(2,2,2-trifluoroethyl)benzo[b]thiophen-2-yl)prop-2-yn-1-yl)amino)-3-methoxyphenyl)(imino)-16-sulfanone]
[1]
  EC50: 188 nM

## COc1cc([S@@](=N)(=O)C(F)F)ccc1NCC#Cc1sc2c(N[C@@H]3CCN(C)C[C@@H]3F)cccc2c1CC(F)(F)F [Example 52, (R)-(difluoromethyl)(4-((3-(7-(((3S,4R)-3-fluoro-1-methylpiperidin-4-yl)amino)-3-(2,2,2-trifluoroethyl)benzo[b]thiophen-2-yl)prop-2-yn-1-yl)amino)-3-methoxyphenyl)(imino)-16-sulfanone]
[1]
  EC50: 135 nM

Source: patent publication US20260374794A1, “COMPOUNDS TARGETING MUTANT OF P53” (JACOBIO PHARMACEUTICALS CO., LTD., priority 2022, published 2026)
